Read-outs that look alike come from different tables or passages of the source.
What was measured:
[1] = target: T1, ScPFTase (protein farnesyltransferase), β-subunit (Saccharomyces cerevisiae, UniProt P22007); test: continuous fluorescence assay with N-dansyl-GCVIA; type: biochemical
T1 sequence (P22007 1-431): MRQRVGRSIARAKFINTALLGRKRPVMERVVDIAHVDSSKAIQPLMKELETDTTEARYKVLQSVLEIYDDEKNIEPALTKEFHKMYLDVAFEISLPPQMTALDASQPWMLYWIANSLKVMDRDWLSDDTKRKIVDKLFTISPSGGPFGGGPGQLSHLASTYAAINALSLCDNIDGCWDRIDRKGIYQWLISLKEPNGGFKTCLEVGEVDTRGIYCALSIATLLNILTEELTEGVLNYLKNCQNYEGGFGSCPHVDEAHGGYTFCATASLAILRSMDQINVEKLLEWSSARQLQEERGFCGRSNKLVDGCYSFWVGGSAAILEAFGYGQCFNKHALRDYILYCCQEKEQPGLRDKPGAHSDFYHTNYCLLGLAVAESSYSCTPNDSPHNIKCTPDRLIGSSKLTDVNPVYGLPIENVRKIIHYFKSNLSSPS
T1 sequence (P29703 1-316 partner): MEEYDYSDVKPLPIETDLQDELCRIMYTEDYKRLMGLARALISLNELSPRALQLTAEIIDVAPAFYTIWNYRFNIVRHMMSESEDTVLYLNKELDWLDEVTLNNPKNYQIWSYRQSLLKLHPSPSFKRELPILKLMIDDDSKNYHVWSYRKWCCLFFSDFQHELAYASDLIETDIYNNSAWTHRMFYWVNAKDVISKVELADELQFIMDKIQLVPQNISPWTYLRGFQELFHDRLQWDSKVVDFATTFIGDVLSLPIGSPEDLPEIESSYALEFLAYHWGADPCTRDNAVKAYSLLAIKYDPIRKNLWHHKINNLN

[2] = target: T1, ScPFTase (protein farnesyltransferase), β-subunit; test: continuous fluorescence assay with N-dansyl-GCVIA; type: biochemical; remark: listed apart in the source

Work on C/C(=C\COP(=O)(O)OP(=O)(O)O)CCCC(C)COC(=O)C(=[N+]=[N-])C(F)(F)F (racemic) [compound 4, (E)-8-O-(2-Diazo-3,3,3-trifluoropropanoyloxy)-3,7-dimethyl-2-octenyl-1-diphosphate] yielded an IC50 [1] of 30 µM.

Compound C/C(=C\COP(=O)(O)OP(=O)(O)O)CC/C=C(\C)CNC(=O)C(=[N+]=[N-])C(F)(F)F [compound 3, (E,E)-8-N-(2-Diazo-3,3,3-trifluoropropionamido)-3,7-dimethyl-2,6-octadienyl-1-diphosphate] has an IC50 [2] of 50 µM.

From paper PMC2836812 (Chemical biology & drug design, 2010)
